Measured values from patent US7262325B2, “Method of preparing salicylamides” (Emisphere Technologies, Inc., priority 2000, dated 2007).

Text: A preferred base for such an alkylation reaction is sodium carbonate. […] The water content of the reaction mixture may also be reduced by performing the reaction in a low pressure atmosphere (e.g a vacuum).

O=c1[n-]c(=O)c2ccccc2o1.[Na+] [carsalam-sodium]
solubility in DMAC: about 6%
